# Legend:
# target cells = assay: Functional properties of BrdU labeled target cells (viability, proliferation, TNF family receptor expression); format: cell-based; settings: trypan blue dye exclusion; increase of cell numbers in culture; flow cytometry
# From the text: In order to determine whether BrdU labeling of cell nuclear DNA affects cellular functions, the inventor examined viability (by trypan blue dye exclusion assay) and proliferation (by evaluation of increase of cell numbers in culture) of target cells, after they were labeled with the DNA metabolic label. In addition, expression of the cell membrane-bound TNF family receptors involved in apoptosis mediated by immune effector cells, such as TNFR1, TNFR2, Fas and LT-βR, was investigated using flow cytometry.
# BT-20 tumor cells = assay: BrdU labeling of cell nuclear DNA of target cells in microwells of Tarasaki plates; format: cell-based, human; settings: 5 μM of BrdU, co-incubated for 24 hours
# Procedure: FIG. 2. Graph depicting BrdU concentration versus incubation period for labeling of target cells in microwells of Tarasaki plates. BT-20 tumor cells (250/microwell) were seeded in the miniplates and incubated for 24 hours. Various concentrations of BrdU then were added to the microwells containing adherent tumor cells, and the incubation was continued for various periods of time, as indicated. After this labeling, the adherent tumor cells were fixed and stained, with an isotype-matched control or an anti-BrdU mAb, and then visually analyzed. Each point on the figure represents a mean value of a triplicate. SD was less than 10% of the mean values.
# BrdU-labeling of target cells in microwells. Suspensions of tumor target cells were prepared from their adherent monolayers, as described above. Target cells were resuspended in tissue culture medium (e.g., RPMI-1640 supplemented with 10% FCS) in an adequate concentration, to contain 100 to 500 cells per 10 μl. BrdU solution was added to this cell suspension, to get its final concentration of 5 μM. In some experiments, to determine the optimal labeling conditions, the concentration of BrdU was varied. […]
smiles,measurement,setting,value
"O=c1[nH]c(=O)n([C@H]2C[C@H](O)[C@@H](CO)O2)cc1Br [BrdU, 5-bromo-2′-deoxyuridine]","effect of BrdU labeling on cellular functions tested (viability, proliferation, expression of TNFR1, TNFR2, Fas and LT-βR)",target cells,no significant effect
same,strong and uniformed labeling of nuclei,BT-20 tumor cells,90%
